Here are results for five molecules from patent US8263643B2, “Polyphenol compounds with modulating neurotransmitter release” (Sungkyunkwan University Foundation for Corporate …, priority 2007, dated 2012).

Test [1] has as its target T1, SNARE complex (SNAP25, SynH3, Vps) (UniProt P60879+P63045+Q16623).
T1 construct: SynH3 (AF217197); Vps (NM012663); made in house; host or cells: E. coli (Codon (+) RIL, Novagen)
The test is described as follows: SDS-PAGE analysis of SNARE complex formation. The format is biochemical. The note with it: for Inhibition of SNARE complex formation (in words): FIG. 2, concentration series; for SNARE complex formation (%): control = 100, footnote: [phenolic compound]:SNAP-25 = 1:1, SNARE proteins 10 μM each, polyphenol 100 μM, room temperature 30 min; for Ratio for inhibition by 50% (IR50), SNARE complex formation: molar concentration ratio phenolic compound:SNAP-25, average of at least three measurements. The method, then:
A SNARE complex is strong enough so as not to be untwisted by SDS. On the basis of such a property, a SDS-PAGE analysis was performed in order to determine the formation of a SNARE complex. Polyphenol compounds used in the present Example were purchased from Sigma-Aldrich, Wako Chemical, and Extrasynthese.
In order to produce SNARE proteins, SNARE proteins, such as, SNAP25 (NM011428), syntaxin 1A (AF217197), VAMP2 (NM012663), SynH3 (AF217197), and Vps (NM012663), were purified in biologically transformed E. coli (Codon (+) RIL, Novagen).
Then, the materials were quickly mixed by a vortex, and were reacted at room temperature for 30 minutes. […]

The target in test [2] is T2, membrane fusion caused by SNARE (SNAP25, syntaxin 1A, VAMP2) (UniProt P60879+P63045+Q16623).
T2 construct: made in house; host or cells: E. coli (Codon (+) RIL, Novagen)
The test is described as follows: Membrane fusion assay with SNARE-reconstituted liposomes (fluorescence). In kind it is biochemical. The note with it: for remaining activity at 20 µM: read-out: Membrane fusion caused by SNARE (% of fusion without inhibitor); for Reduction of membrane fusion (in words): FIG. 3; for Ratio for inhibition by 50% (IR50), membrane fusion: molar concentration ratio phenolic compound:SNAP-25, average of at least three measurements. The method, then:
In order to produce SNARE proteins, SNARE proteins, such as SNAP25 (NM011428), syntaxin 1A (AF217197), and VAMP2 (NM012663), were purified in biologically transformed E. coli (Codon (+) RIL, Novagen).
In order to prepare liposome (fine membrane) marked with a fluorescent substance, POPC (62 mol %), DOPS (35 mol %), NBD-PS (1.5 mol %) and a fluorescent substance Rhodamin-PE (1.5 mol %) were mixed to obtain 10 mM of liposome (v-vesicle). Also, in order to prepare a liposome not marked with a fluorescent substance, DOPS and POPC were mixed in a molar concentration ratio of 35:65 to obtain 50 mM of liposome (t-vesicle). In order to prepare a complex of the purified SNAP25 and syntaxin 1a, the SNAP25 and the syntaxin 1a were mixed in a molar concentration ratio of 1:1, and then were reacted at room temperature for 1 hour. Then, the resultant mixture and the liposome not marked with a fluorescent substance were mixed in a molar ratio of 100:1. The VAMP2 and the liposome marked with a fluorescent substance were mixed in a molar ratio of 50:1. Then, each of the two kinds of liposomes was dialyzed by using 10 kDa dialyzing membrane through agitation at 4° C. for 24 hours, and the liposomes were mixed in a ratio of 3:7 (v-vesicle t-visicle). Next, fluorescence was measured by using a fluorometer (SpectraMax M2 manufactured by Molecular Device).
Herein, 100% indicates the degree of membrane fusion in the state where no inhibitor was added. As the value is smaller, the inhibiting degree is higher.

A further test has as its system PC12 cell. Description: Inhibition of [3H]-norepinephrine release from PC12 cells. The format is cell-based. The note with it: normal PC12 cells, FIG. 4. The method, then:
PC12 cells were cultured in a Ham's F12K medium where 10% […], 5% fetal bovine serum, and antibiotics were added in a collagen-coated plate (60 mm dish). In subculture, after sucking of the medium, 2 ml of PBS was added and cells were separated from a dish wall through pipetting. Then, centrifugation with 1,000×g for 5 minutes was carried out to obtain cells. A new medium was introduced, and a cell pellet was dispersed through pipetting and was loaded onto a new culture plate. And culture was carried out at 37° C. in a culture medium providing 5% CO2 gas. [^3H]-norepinephrine used for the experiment was purchased from Amersham. After sucking of the medium in the plate of PC12 cells, PBS was added and cells were separated from a plate wall. Then, the number of cells was measured by a hemacytometer, and the cells were dispersedly inoculated into a new medium at a concentration of 2×10^5 cell/ml. After 24 hours, a buffer solution ([^3H]—NE, 1.5 μCi/ml) for assay of norepinephrine was added, and then the cells were induced in a carbon dioxide incubator for 90 minutes. After the reaction, the buffer solution was removed and the cells were washed three times with PBS. Then, a new medium and each polyphenol compound were loaded and a reaction was performed for 30 minute. […]

The mark [3] stands for this setting: 20 μM phenolic compound, 100% = no inhibitor added.

T2 sequence (P60879 whole entry, the tested form may be a part): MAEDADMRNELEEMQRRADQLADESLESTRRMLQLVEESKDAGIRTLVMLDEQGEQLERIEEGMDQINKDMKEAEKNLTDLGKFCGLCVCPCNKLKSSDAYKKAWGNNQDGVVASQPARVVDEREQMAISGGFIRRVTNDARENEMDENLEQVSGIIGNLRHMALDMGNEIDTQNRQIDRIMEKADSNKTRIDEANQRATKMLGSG
T2 sequence (Q16623 whole entry, the tested form may be a part): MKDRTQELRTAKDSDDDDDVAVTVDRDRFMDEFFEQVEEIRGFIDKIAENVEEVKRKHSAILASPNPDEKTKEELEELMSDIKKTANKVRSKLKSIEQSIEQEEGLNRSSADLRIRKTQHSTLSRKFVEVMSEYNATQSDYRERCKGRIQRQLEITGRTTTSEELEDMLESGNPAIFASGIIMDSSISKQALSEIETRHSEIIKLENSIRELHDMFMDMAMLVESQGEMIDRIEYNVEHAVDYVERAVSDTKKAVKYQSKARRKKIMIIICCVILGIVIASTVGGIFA
T2 sequence (P63045 whole entry, the tested form may be a part): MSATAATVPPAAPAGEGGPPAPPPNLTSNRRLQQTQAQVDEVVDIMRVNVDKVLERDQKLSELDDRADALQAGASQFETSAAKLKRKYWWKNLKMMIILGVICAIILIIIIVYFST
T1 sequence (P60879 whole entry): as the sequence (P60879 whole entry, the tested form may be a part) above
T1 sequence (Q16623 192-254 limits assumed): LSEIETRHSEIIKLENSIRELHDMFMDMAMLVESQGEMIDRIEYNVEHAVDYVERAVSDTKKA
T1 sequence (P63045 2-94 limits assumed): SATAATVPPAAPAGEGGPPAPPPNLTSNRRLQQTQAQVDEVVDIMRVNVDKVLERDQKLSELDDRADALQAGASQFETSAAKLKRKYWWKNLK

As to `O=c1c(O)c(-c2cc(O)c(O)c(O)c2)oc2cc(O)cc(O)c12` [Myricetin], in test [1], the “Inhibition of SNARE complex formation (in words)” value is recorded as “inhibit the formation of a SNARE complex by 50% at a low concentration”; the “SNARE complex formation (%)” value is recorded as 72.13 ± 10.13 %; the “Ratio for inhibition by 50% (IR50), SNARE complex formation” value is on record as 14.9. In addition, the remaining activity at 20 µM in test [2] (setting [3]) is 43.9 ± 8.38%. In test [2], the “Reduction of membrane fusion (in words)” value was “can reduce membrane fusion” and the “Ratio for inhibition by 50% (IR50), membrane fusion” value was determined as 0.79. For the same molecule, in the test on PC12 cell, the “Norepinephrine release inhibiting effect (in words)” value was “relatively high norepinephrine release inhibiting effects”.
As to `O=C(/C=C/c1ccc(O)c(O)c1)c1ccc(O)cc1O` [Butein], in test [1], the “Inhibition of SNARE complex formation (in words)” value was “inhibit the formation of a SNARE complex by 50% at a low concentration”; the “SNARE complex formation (%)” value is recorded as 88.45 ± 7.09 %; the “Ratio for inhibition by 50% (IR50), SNARE complex formation” value is on record as 30.5. In addition, in test [2] (setting [3]), the remaining activity at 20 µM is 16.9 ± 2.98%. Besides, in test [2], the “Reduction of membrane fusion (in words)” value is “can reduce membrane fusion” and the “Ratio for inhibition by 50% (IR50), membrane fusion” value turned out to be 0.81. Further, the “Norepinephrine release inhibiting effect (in words)” value in the test with PC12 cell is “relatively high norepinephrine release inhibiting effects”.
`C[C@@H]1O[C@@H](OC[C@H]2O[C@@H](Oc3c(-c4ccc(O)c(O)c4)oc4cc(O)cc(O)c4c3=O)[C@H](O)[C@@H](O)[C@@H]2O)[C@H](O)[C@H](O)[C@H]1O` [Rutin]: the “SNARE complex formation (%)” value in test [1] stood at 92.86 ± 9.53%. In test [2] (setting [3]), the remaining activity at 20 µM is 96.7 ± 10.6%.
For the molecule `Oc1cc(O)c2c(c1)O[C@H](c1ccc(O)c(O)c1)[C@H](O)C2` [(−)-Epicatechin], in test [1], the “SNARE complex formation (%)” value is listed as 114.55 ± 5.00%. Also, the “Membrane fusion caused by SNARE (% of fusion without inhibitor)” value in test [2] (setting [3]) was determined as 97.98 ± 1.50%.
In the case of `O=C(O)c1ccc(O)c(O)c1` [Protocatechuic acid], the “SNARE complex formation (%)” value in test [1] is on record as 98.38 ± 4.56%. The remaining activity at 20 µM in test [2] (setting [3]) was determined as 104 ± 8.19%.
